Patent publication US20240400591A1 (Jacobio Pharmaceuticals Co., Ltd., priority 2021, published 2024)
Where two headings read alike, the source gives them in different places.

Experiments:
[1] = tested on: NUGC-3_P53_Luc single clonal cell line (p53 Y220C); experiment: Reporter gene assay (p53 RE luciferase); type: cell-based; conditions: luciferase reporter, 6 hours, normalized to Ref-1a (10 μM) high control, read-out: p53(Y220C)_NUGC-3 EC50
Method in brief: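 NUGC-3 cells stably carrying a p53 RE-driven luc2P reporter, washed free of phenol red, exposed to compound for 6 h at 37 °C; luminescence read. Activity normalised between DMSO (low) and Ref-1a 10 μM (high) controls; EC50 from 4-parameter logistic fit or Excel as concentration giving 50% activity.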

NUGC4 (P53 WT) = experiment: Cell viability assay (CellTiter-Glo, 6 days), NUGC4; type: cell-based; conditions: cell viability, 6 days, CellTiter-Glo, read-out: NUGC4 (P53 WT) IC50
Method in brief: (§1)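 Cells seeded overnight at 37 °C, then exposed to compounds in medium for 6 days. Viability read by CellTiter-Glo luminescence, normalized to DMSO cell wells (high) and medium-only wells (low); IC50 taken as concentration giving 50% viability from 4-parameter logistic fit.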

NUGC3 (P53 Y220C) = experiment: Cell viability assay (CellTiter-Glo, 6 days), NUGC3; type: cell-based; conditions: cell viability, 6 days, CellTiter-Glo, read-out: NUGC3 (P53 Y220C) IC50
Method in brief: as §1

[2] = molecular target: T1, His-p53 Y220C (94-294) protein (Homo sapiens, UniProt P04637, Y220C); experiment: In vitro DNA binding assay (HTRF); type: biochemical; conditions: % activation normalized to 2 μM Ref-1a high control
T1 construct: His-p53 Y220C (94-294) protein

COc1cc(P(C)(C)=O)ccc1NCC#Cc1sc2c(NC3CCN(C)CC3F)cccc2c1CC(F)(F)F (centres unmarked) [Example 15, (4-((3-(7-(((Z)-3-fluoro-1-methylpiperidin-4-yl)amino)-3-(2,2,2-trifluoroethyl)benzo[b]thiophen-2-yl)prop-2-yn-1-yl)amino)-3-methoxyphenyl)dimethylphosphine oxide]
EC50 [1]: 310 nM | IC50 (NUGC4 (P53 WT)): 6990 nM | IC50 (NUGC3 (P53 Y220C)): 360 nM | EC50 [2]: 34 nM

CN1CC[C@@H](Nc2cccc3c(CC(F)(F)F)c(C#CCNc4ccc(P(C)(C)=O)cc4C(=O)NC4CCOCC4)sc23)[C@@H](F)C1 [Example 216, 5-(dimethylphosphoryl)-2-((3-(7-(((3S,4R)-3-fluoro-1-methylpiperidin-4-yl)amino)-3-(2,2,2-trifluoroethyl)benzo[b]thiophen-2-yl)prop-2-yn-1-yl)amino)-N-(tetrahydro-2H-pyran-4-yl)benzamide]
EC50 ([1]; Homo sapiens, NUGC-3): 120 nM | IC50 (NUGC4 (P53 WT); Homo sapiens, NUGC-4, 144 h): > 50000 nM | IC50 (NUGC3 (P53 Y220C); Homo sapiens, NUGC-3, 144 h): 270 nM | EC50 [2]: 48 nM

COc1c(NCC#Cc2sc3c(N[C@@H]4CCN(C)C[C@@H]4F)cccc3c2CC(F)(F)F)ccc(P(C)(C)=O)c1F [Example 194, (2-fluoro-4-((3-(7-(((3S,4R)-3-fluoro-1-methylpiperidin-4-yl)amino)-3-(2,2,2-trifluoroethyl)benzo[b]thiophen-2-yl)prop-2-yn-1-yl)amino)-3-methoxyphenyl)dimethylphosphine oxide]
EC50 ([1]; Homo sapiens, NUGC-3): 150 nM | IC50 (NUGC4 (P53 WT); Homo sapiens, NUGC-4, 144 h): 12200 nM | IC50 (NUGC3 (P53 Y220C); Homo sapiens, NUGC-3, 144 h): 1750 nM | EC50 [2]: 33 nM

[2H]C([2H])([2H])N1CC[C@@H](Nc2cccc3c(CC(F)(F)F)c(C#CCNc4ccc(P(C)(C)=O)cc4OC)sc23)[C@@H](F)C1 [Example 210, (4-((3-(7-(((3S,4R)-3-fluoro-1-(methyl-d3)piperidin-4-yl)amino)-3-(2,2,2-trifluoroethyl)benzo[b]thiophen-2-yl)prop-2-yn-1-yl)amino)-3-methoxyphenyl)dimethylphosphine oxide]
EC50 ([1]; Homo sapiens, NUGC-3): 30 nM | IC50 (NUGC4 (P53 WT); Homo sapiens, NUGC-4, 144 h): 12000 nM | IC50 (NUGC3 (P53 Y220C); Homo sapiens, NUGC-3, 144 h): 1280 nM | EC50 [2]: 16 nM

CNC(=O)c1ccc(NCC#Cc2cc3c(N[C@@H]4CCN(C)C[C@@H]4F)cccc3n2CC(F)(F)F)c(OC)c1 [Example 57, 4-((3-(4-(((Z)-3-fluoro-1-methylpiperidin-4-yl)amino)-1-(2,2,2-trifluoroethyl)-1H-indol-2-yl)prop-2-yn-1-yl)amino)-3-methoxy-N-methylbenzamide]
EC50 ([1]; Homo sapiens, NUGC-3): 80 nM | IC50 (NUGC4 (P53 WT); Homo sapiens, NUGC-4, 144 h): 12000 nM | IC50 (NUGC3 (P53 Y220C); Homo sapiens, NUGC-3, 144 h): 1110 nM | EC50 [2]: 29 nM

CN1CC[C@@H](Nc2cccc3c(CC(F)(F)F)c(C#CCNc4ccc(P(C)(C)=O)c5c4OCC5)sc23)[C@@H](F)C1 [Example 187, (7-((3-(7-(((3S,4R)-3-fluoro-1-methylpiperidin-4-yl)amino)-3-(2,2,2-trifluoroethyl)benzo[b]thiophen-2-yl)prop-2-yn-1-yl)amino)-2,3-dihydrobenzofuran-4-yl)dimethylphosphine oxide]
EC50 ([1]; Homo sapiens, NUGC-3): 50 nM | IC50 (NUGC4 (P53 WT); Homo sapiens, NUGC-4, 144 h): 5320 nM | IC50 (NUGC3 (P53 Y220C); Homo sapiens, NUGC-3, 144 h): 290 nM | EC50 [2]: 33 nM

COc1cc(P(C)(C)=O)ccc1NCC#Cc1sc2c(N[C@@H]3CCN(C4COC4)C[C@@H]3F)cccc2c1CC(F)(F)F (racemic) [Example 75, (4-((3-(7-(((Z)-3-fluoro-1-(oxetan-3-yl)piperidin-4-yl)amino)-3-(2,2,2-trifluoroethyl)benzo[b]thiophen-2-yl)prop-2-yn-1-yl)amino)-3-methoxyphenyl)dimethylphosphine oxide]
EC50 ([1]; Homo sapiens, NUGC-3): 160 nM | IC50 (NUGC4 (P53 WT); Homo sapiens, NUGC-4, 144 h): 5340 nM | IC50 (NUGC3 (P53 Y220C); Homo sapiens, NUGC-3, 144 h): 1020 nM | EC50 [2]: 82 nM

COc1cc(P(C)(C)=O)ccc1NCC#Cc1sc2c(N[C@@H]3CCN(C4CC5CCC(C4)O5)C[C@@H]3F)cccc2c1CC(F)(F)F (stereo partly drawn) [Example 180, (4-((3-(7-(((3S,4R)-1-(8-oxabicyclo[3.2.1]octan-3-yl)-3-fluoropiperidin-4-yl)amino)-3-(2,2,2-trifluoroethyl)benzo[b]thiophen-2-yl)prop-2-yn-1-yl)amino)-3-methoxyphenyl)dimethylphosphine oxide]
EC50 ([1]; Homo sapiens, NUGC-3): 110 nM | IC50 (NUGC4 (P53 WT); Homo sapiens, NUGC-4, 144 h): 5890 nM | IC50 (NUGC3 (P53 Y220C); Homo sapiens, NUGC-3, 144 h): 910 nM | EC50 [2]: 50 nM

COc1cc(P(C)(C)=O)ccc1NCC#Cc1sc2c(N[C@@H]3CCN(C)C[C@@H]3Cl)cccc2c1CC(F)(F)F [Example 158, (3S,4R)-3-chloro-N-[2-[3-(4-dimethylphosphoryl-2-methoxy-anilino)prop-1-ynyl]-3-(2,2,2-trifluoroethyl)benzothiophen-7-yl]-1-methyl-piperidin-4-amine]
EC50 ([1]; Homo sapiens, NUGC-3, 6 h): 90 nM | IC50 (NUGC4 (P53 WT); Homo sapiens, NUGC-4, 144 h): 3950 nM | IC50 (NUGC3 (P53 Y220C); Homo sapiens, NUGC-3, 144 h): 370 nM | EC50 [2]: 30 nM

CNC(=O)c1ccc(NCC#Cc2cc3c(N[C@@H]4CCN(C)C[C@@H]4F)cccc3n2CC(F)(F)F)c(OC)c1 [Example 110, 4-((3-(4-(((3S,4R)-3-fluoro-1-methylpiperidin-4-yl)amino)-1-(2,2,2-trifluoroethyl)-1H-indol-2-yl)prop-2-yn-1-yl)amino)-3-methoxy-N-methylbenzamide]
EC50 ([1]; Homo sapiens, NUGC-3, 6 h): 40 nM | IC50 (NUGC4 (P53 WT); Homo sapiens, NUGC-4, 144 h): 14200 nM | IC50 (NUGC3 (P53 Y220C); Homo sapiens, NUGC-3, 144 h): 1020 nM | EC50 [2]: 27 nM

COc1cc(P(C)(C)=O)ccc1NCC#Cc1sc2c(N[C@@H]3CCN(C4CCOC4)C[C@@H]3F)cccc2c1CC(F)(F)F (stereo partly drawn) [Example 157, (4-((3-(7-(((3S,4R)-3-fluoro-1-(tetrahydrofuran-3-yl)piperidin-4-yl)amino)-3-(2,2,2-trifluoroethyl)benzo[b]thiophen-2-yl)prop-2-yn-1-yl)amino)-3-methoxyphenyl)dimethylphosphine oxide]
EC50 ([1]; Homo sapiens, NUGC-3): 110 nM | IC50 (NUGC4 (P53 WT); Homo sapiens, NUGC-4, 144 h): 4840 nM | IC50 (NUGC3 (P53 Y220C); Homo sapiens, NUGC-3, 144 h): 530 nM | EC50 [2]: 68 nM

COc1cc(P(C)(C)=O)ccc1NCC#Cc1sc2c(N[C@@H]3CCN(C4CCN(C)CC4)C[C@@H]3F)cccc2c1CC(F)(F)F (racemic) [Example 72, (Z)-(4-((3-(7-((3-fluoro-1′-methyl-[1,4′-bipiperidin]-4-yl)amino)-3-(2,2,2-trifluoroethyl)benzo[b]thiophen-2-yl)prop-2-yn-1-yl)amino)-3-methoxyphenyl)dimethylphosphine oxide]
EC50 ([1]; Homo sapiens, NUGC-3, 6 h): 210 nM | IC50 (NUGC4 (P53 WT); Homo sapiens, NUGC-4, 144 h): 4430 nM | IC50 (NUGC3 (P53 Y220C); Homo sapiens, NUGC-3, 144 h): 430 nM | EC50 [2]: 41 nM

COCCNC(=O)c1ccc(NCC#Cc2sc3c(N[C@@H]4CCN(C)C[C@@H]4F)cccc3c2CC(F)(F)F)c(OC)c1 (relative stereo) [Example 85, 4-((3-(7-(((Z)-3-fluoro-1-methylpiperidin-4-yl)amino)-3-(2,2,2-trifluoroethyl)benzo[b]thiophen-2-yl)prop-2-yn-1-yl)amino)-3-methoxy-N-(2-methoxyethyl)benzamide]
EC50 ([1]; Homo sapiens, NUGC-3): 220 nM | IC50 (NUGC4 (P53 WT); Homo sapiens, NUGC-4, 144 h): 8240 nM | IC50 (NUGC3 (P53 Y220C); Homo sapiens, NUGC-3, 144 h): 1540 nM | EC50 [2]: 75 nM

COc1cc(P(=O)(C2CC2)C2CC2)ccc1NCC#Cc1sc2c(N[C@@H]3CCN(C)C[C@@H]3F)cccc2c1CC(F)(F)F [Example 141, dicyclopropyl(4-((3-(7-(((3S,4R)-3-fluoro-1-methylpiperidin-4-yl)amino)-3-(2,2,2-trifluoroethyl)benzo[b]thiophen-2-yl)prop-2-yn-1-yl)amino)-3-methoxyphenyl)phosphine oxide]
EC50 ([1]; Homo sapiens, NUGC-3, 6 h): 90 nM | IC50 (NUGC4 (P53 WT); Homo sapiens, NUGC-4, 144 h): 9060 nM | IC50 (NUGC3 (P53 Y220C); Homo sapiens, NUGC-3, 144 h): 1130 nM | EC50 [2]: 49 nM

COc1cc(N2CCOCC2=O)ccc1NCC#Cc1sc2c(NC3CCN(C)CC3F)cccc2c1CC(F)(F)F (centres unmarked) [Example 192, 4-(4-((3-(7-((3-fluoro-1-methylpiperidin-4-yl)amino)-3-(2,2,2-trifluoroethyl)benzo[b]thiophen-2-yl)prop-2-yn-1-yl)amino)-3-methoxyphenyl)morpholin-3-one]
EC50 ([1]; Homo sapiens, NUGC-3): 130 nM | IC50 (NUGC4 (P53 WT); Homo sapiens, NUGC-4, 144 h): 7610 nM | IC50 (NUGC3 (P53 Y220C); Homo sapiens, NUGC-3, 144 h): 1190 nM | EC50 [2]: 34 nM

COc1cc(P(C)(C)=O)ccc1NCC#Cc1sc2c(N[C@H]3CCN(C4CCOCC4)C[C@H]3F)cccc2c1CC(F)(F)F [Example 148, (4-((3-(7-(((3R,4S)-3-fluoro-1-(tetrahydro-2H-pyran-4-yl)piperidin-4-yl)amino)-3-(2,2,2-trifluoroethyl)benzo[b]thiophen-2-yl)prop-2-yn-1-yl)amino)-3-methoxyphenyl)dimethylphosphine oxide]
EC50 ([1]; Homo sapiens, NUGC-3, 6 h): 210 nM | IC50 (NUGC4 (P53 WT); Homo sapiens, NUGC-4, 144 h): 3080 nM | IC50 (NUGC3 (P53 Y220C); Homo sapiens, NUGC-3, 144 h): 1560 nM | EC50 [2]: 147 nM

COc1cc(P(C)(C)=O)ccc1NCC#Cc1sc2c(N[C@H]3CCN(C)C[C@H]3F)cccc2c1CC(F)(F)F [Example 114, (4-((3-(7-(((3R,4S)-3-fluoro-1-methylpiperidin-4-yl)amino)-3-(2,2,2-trifluoroethyl)benzo[b]thiophen-2-yl)prop-2-yn-1-yl)amino)-3-methoxyphenyl)dimethylphosphine oxide]
EC50 ([1]; Homo sapiens, NUGC-3, 6 h): 120 nM | IC50 (NUGC4 (P53 WT); Homo sapiens, NUGC-4, 144 h): 10500 nM | IC50 (NUGC3 (P53 Y220C); Homo sapiens, NUGC-3, 144 h): 1240 nM | EC50 [2]: 57 nM
